Measured values reported in patent US20020019365A1, “Pharmaceutical compositions of 2'-deoxy-2'-(fluoromethylene)cytidine” (priority 2000, published 2002).

Columns and labels:
[1] = pH-rate profile for the degradation of FMdC (pH-stability profile, FIG. 1); assay type: physicochemical
[2] = oral administration of FMdC in a conventional tablet form, systemic uptake / bioavailability; assay type: in vivo; conditions: mammalian patient
Description: Notwithstanding these teachings in the art, a problem has been encountered when the compound is administered in an oral form.

With `Nc1ccn(C2OC(CO)[C@@H](O)/C2=C\F)c(=O)n1` (stereo partly shown) [FMdC, 2′-deoxy-2′-(fluoromethylene)cytidine] the “pH at which FMdC is most stable” value ([1]; Britton-Robinson buffer (pH 2 to pH 11) and 0.1N HCl (pH 1) at 60° C.) was about 9 pH, the “stability at a pH of about 2 or less” value ([1]; pH of about 2 or less, 60° C.) was “very unstable” and the “patient-to-patient variability of systemic uptake” value [2] was “high”. The “systemic uptake of the drug (oral bioavailability)” value [2] was “less than desirable”.
